Data as given in patent US20240016938A1, “METHODS FOR INCREASING THE BIOAVAILABILITY OF NUCLEOSIDE MEDICINAL AGENTS” (ZOGENIX MDS, INC., priority 2022, published 2024).
Each block holds one compound with its values, some of them ahead of it.

Experiment: Pooled population PK analysis of dC and dT (five studies: healthy volunteers, renal impairment, TK2d participants)
Conditions: human, in vivo
Protocol: A phase 2 study was conducted as an open-label continuation of treatment with MT1621 in participants with TK2designed to evaluate the safety, tolerability, and PK of MT1621 (fixed dose combination of dC and dT supplied in a single packet). The study enrolled forty-seven (47) participants. After enrollment, participants transitioned from their current chemical grade 2′-deoxycytidine monophosphate/2′-deoxythymidine monophosphate (dCMP/dTMP) to deoxycytidine and deoxythymidine, or continued the use of deoxycytidine and deoxythymidine. Upon enrollment, participants who were on a stable maintenance dose of 400 mg/kg/day were treated with the same dose of deoxycytidine and deoxythymidine three-times daily (TID). Study participants who were on a total dose <400 mg/kg/day were transitioned to either 260 mg/kg/day (130 mg/kg/day of deoxycytidine and 130 mg/kg/day of deoxythymidine) TID, 520 mg/kg/day (260 mg/kg/day of deoxycytidine and 260 mg/kg/day of deoxythymidine) TID, or 800 mg/kg/day (400 mg/kg/day of deoxycytidine and 400 mg/kg/day of deoxythymidine) TID, depending on which was closest to the participants' previous dose.
The early protocol for deoxycytidine and deoxythymidine administration was for the participants to take the drug product without regard to food. […] Later in the program, when an unexpected effect of food on PK was noted, the protocol was amended to instruct the participants to take the drug product with food. By then, planned PK samples had been taken in a majority of the participants. A total of 3 blood samples were collected from each individual following study Day 1 to measure dC plasma concentrations. Sparse PK blood sampling and PD endpoint collection was conducted according to the following schedule: at Month 1 sampled 0.5, 1, 2, or 3 hours post-dose; and at Month 3 sampled 8, 10, 12, or 14 hours post-dose. During sampling, it was noted whether food was consumed from 1 hour pre-dose to 2 hours post-dose. And, the lower limit of quantification (LLOQ) was 0.5 ng/mL for both dC and dT.
For the calculation of the PK parameters, raw (unadjusted) plasma dC and dT concentrations below the limit of quantitation (BLQ) were set to 1% the limit of quantitation (LOQ) of the assay. […] Since all participants had measurable pre-dose concentrations, Kel and associated PK parameters were not calculated for unadjusted data.
Analysis of the PK data pooled from five (5) studies (including those described in Examples 1 and 2) comprising three (3) Phase 1 studies in healthy volunteers (HV) and two (2) open-label Phase 2 studies that included both adult and pediatric study participants with TK2d. A total of 119 study participants were included, which consisted of 44 healthy study participants, 16 study participants with renal impairment (moderate or severe), and 59 participants with TK2d that included participants aged from 0.9 years to 75.6 year of age.
Pooled population PK analysis confirmed that the fed state was a statistically significant covariate of the PK of dC including the TK2 deficient participants. Table 6 reflects analysis of all dC PK data including those for TK2 deficient participants. […] This is the pertinent value to estimate food effect on dC exposures. […] The decrease in the rate of dC absorption with food (parameter Ka in Table 6) is believed to be due to slower gastric/intestinal motility in the fed state. It is likely that the effect of food on dT concentration in participants with TK2 deficiency was masked by the high variability and limited PK sampling.

F lower in healthy volunteers compared to TK2 deficient participants: 70-90%
bioavailability: ~83%
decrease of F in Latino/Hispanic population: ~50%
decrease of absorption rate constant from first input compartment (K12) with high-fat content meal: ~80%
decrease of lag time from second input compartment (ALAG3) with high-fat content meal: ~80%
dose proportionality of exposures following single ascending doses: more than dose proportional
endogenous baseline across studies: 0.220 to 1.14 ng/mL
increase of F with a high-fat content meal: ~120%
Compound: Cc1cn([C@H]2C[C@H](O)[C@@H](CO)O2)c(=O)[nH]c1=O [dT, β-D-2′-deoxythymidine]

CL/F, apparent clearance: Bootstrap Median [2.5th-97.5th percentile]: 392000 (318000, 492000) L/h
CL/F, apparent clearance: NONMEM Estimate (% RSE): 392000 (11.0%) L/h
IIV on BSL: Bootstrap Median [2.5th-97.5th percentile]: 26.9% (19.4%, 35.3%)
IIV on BSL: NONMEM Estimate (% RSE): 27.3% (15.0%) CV %
IIV on CL/F: Bootstrap Median [2.5th-97.5th percentile]: 60.3% (36.2%, 82.3%)
IIV on CL/F: NONMEM Estimate (% RSE): 61.6% (18.0%) CV%
IIV on F: Bootstrap Median [2.5th-97.5th percentile]: 73.3% (37.8%, 102%)
IIV on F: NONMEM Estimate (% RSE): 75.1% (19.8%) CV %
IIV on Ka: Bootstrap Median [2.5th-97.5th percentile]: 62.6% (36.1%, 81.8%)
IIV on Ka: NONMEM Estimate (% RSE): 65.9% (13.6%) CV %
IIV on V/F: Bootstrap Median [2.5th-97.5th percentile]: 77.9% (39.3%, 107%)
IIV on V/F: NONMEM Estimate (% RSE): 77.3% (18.0%) CV %
IOV on F: Bootstrap Median [2.5th-97.5th percentile]: 31.4% (26.3%, 37.9%)
IOV on F: NONMEM Estimate (% RSE): 31.5% (8.01%) CV %
Ka, absorption rate constant: Bootstrap Median [2.5th-97.5th percentile]: 0.465 (0.361, 0.638) h^−1
Ka, absorption rate constant: NONMEM Estimate (% RSE): 0.466 (11.5%) h^−1
Proportional RUV: Bootstrap Median [2.5th-97.5th percentile]: 17.4% (16.1%, 18.8%)
Proportional RUV: NONMEM Estimate (% RSE): 17.5% (3.76%)
V/F, apparent volume of distribution: NONMEM Estimate (% RSE): 284000 (19.9%) L
Vd/F: 278000 L
dC BSL, dC endogenous baseline level: Bootstrap Median [2.5th-97.5th percentile]: 3.45 (3.21, 3.65) ng/mL
dC BSL, dC endogenous baseline level: NONMEM Estimate (% RSE): 3.45 (3.29%) ng/mL
decrease of absorption rate constant (Ka) with food intake: ~44%
difference in F between HV and TK2 deficient participants: No difference in F was detected
endogenous baseline across studies and populations: the same across studies and populations
Compound: Nc1ccn([C@H]2C[C@H](O)[C@@H](CO)O2)c(=O)n1 [dC, β-D-2′-deoxycytidine]
